According to PubChem BioAssay AID624405 (Broad Institute, 2012):
Inconclusive results are not listed.

Tested on: C2C12 myotubes + simvastatin, ATP luminescence, 48 h
Assay: suppressors of statin myotoxicity in myotubes, dose response, cell-based, C2C12 myotubes, ATP luminescence, cherry pick (AID 624405);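 further: myotubes are challenged with simvastatin at 10 µM to lower ATP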

| Structure (SMILES) | AC40 [µM] |
| --- | --- |
| CCSc1nnc(NC(=O)c2c(-c3ccccc3Cl)noc2C)s1 | 13.9 |
| Cc1noc(C)c1S(=O)(=O)Nc1ccc2c(c1)CC(=O)N([C@H](C)CO)C[C@H](C)[C@@H](CN(C)Cc1ccc(C(F)(F)F)cc1)O2 | 4.59 |
| C[C@H]1CN([C@@H](C)CO)C(=O)Cc2cc(NS(=O)(=O)c3ccc(Cl)cc3)ccc2O[C@@H]1CN(C)CC1CCCCC1 | 15.1 |
| C[C@@H]1CN([C@H](C)CO)C(=O)Cc2cc(NS(C)(=O)=O)ccc2O[C@@H]1CN(C)Cc1ccc(-c2ccccc2)cc1 | 18.4 |
| O=C(CN1CCC(c2nc3ccccc3s2)CC1)NCc1ccccc1 | 19.3 |
| C[C@H]1CN([C@@H](C)CO)S(=O)(=O)c2ccc(C#CC3CC3)cc2O[C@H]1CN(C)C(=O)Nc1cc(F)ccc1F | 3.66 |
| CCOC(=O)n1c(=O)n(Cc2c(Cl)cccc2Cl)c2ccccc21 | 7.14 |
| COc1ccc(CN2[C@H](CO)[C@H]3c4ccccc4NC[C@H]32)cc1 | 17.8 |
| CCN1C(=O)NC2=C(C(=O)c3ccccc32)C1c1ccccc1F (stereo not given) | 5.31 |
| COc1ccc(C#Cc2cnc3c(c2)C(=O)N([C@H](C)CO)C[C@H](C)[C@H](CN(C)Cc2ccccc2)O3)cc1OC | 2.66 |
| C[C@H](CO)N1C[C@H](C)[C@@H](CN(C)Cc2ccc(Cl)c(Cl)c2)Oc2ccc(NC(=O)Cc3cn(C)c4ccccc34)cc2CC1=O | 7.35 |
| OC(c1cccc(OCc2ccccc2)c1)c1nnc(-c2ccccc2)o1 (stereo not given) | 5.24 |
| CCOC(=O)N1CCN(C(=O)C(c2ccccc2)c2ccccc2)CC1 | 5.75 |
| C[C@H](CO)N1C[C@H](C)[C@H](CN(C)Cc2ccc3c(c2)OCO3)Oc2ccc(NC(=O)CCCCCC(=O)Nc3ccccc3N)cc2CC1=O | 14.9 |
| O=C(CCCSc1nc(-c2ccco2)cc(C(F)(F)F)n1)NCc1cccs1 | 15.1 |
| O=c1[nH]ncc2c3ccccc3n(Cc3ccccc3)c12 | 5.26 |
| Cc1ccc(O)c(CNc2ccccn2)c1 | 0.443 |
| CC1(Cc2cccc(F)c2)C(=O)Nc2ccc(S(=O)(=O)NC3CCCCC3)cc21 (stereo not given) | 1.66 |

| Structure (SMILES) | AC40 [µM] |
| --- | --- |
| COc1ccc(-n2c(C)cc(C=O)c2C)cc1Cl | 9.14 |
| C[C@@H]1CN([C@H](C)CO)C(=O)c2cc(NC(=O)Nc3cccc4ccccc34)ccc2O[C@H]1CN(C)Cc1ccc(C(=O)Nc2ccccc2N)cc1 | 17 |
| Cc1onc(-c2ccccc2Cl)c1C(=O)NCc1nc(-c2ccccc2)no1 | 8.26 |
| CC1CCN(S(=O)(=O)c2ccc(NC(=O)C3CCN(C(=O)c4ccco4)CC3)cc2)CC1 | 6.94 |
| C[C@H]1CN([C@@H](C)CO)C(=O)Cc2cc(NC(=O)Nc3cccc4ccccc34)ccc2O[C@H]1CN(C)Cc1ccc(C(=O)Nc2ccccc2N)cc1 | 2.05 |
| Cc1ccc(S(=O)(=O)Nc2ccc3c(c2)CC(=O)N([C@@H](C)CO)C[C@H](C)[C@@H](CN(C)Cc2ccc(Cl)c(Cl)c2)O3)cc1 | 11.9 |
| CC(C)(C)c1ccc(OCC(=O)N/N=C/c2cc(Br)ccc2OC(=O)c2ccco2)cc1 | 2.32 |
| C[C@@H]1CN([C@H](C)CO)C(=O)c2cc(NS(=O)(=O)c3ccc(Cl)cc3)ccc2O[C@@H]1CN(C)Cc1ccc(C(=O)Nc2ccccc2N)cc1 | 11.3 |
| Cc1c(NC(=O)CSc2ccccn2)c(=O)n(-c2ccccc2)n1C | 10.7 |
| Cc1cc(C)c(C)c(S(=O)(=O)NCC(=O)N2CCCC2)c1C | 13.2 |
| CCCCCCn1c(C(C)O)nc2ccccc21 (stereo not given) | 1.94 |
| C[C@H]1CN([C@@H](C)CO)C(=O)c2cc(C#Cc3ccncc3)cnc2O[C@@H]1CN(C)CC1CCCC1 | 4.52 |
| C[C@@H]1CN([C@@H](C)CO)C(=O)Cc2cc(NC(=O)CCCCCC(=O)Nc3ccccc3N)ccc2O[C@@H]1CN(C)CC1CCCCC1 | 7.13 |
| CC(C)C(=O)N(c1ccc2oc(=O)sc2c1)S(=O)(=O)c1ccccc1 | 3.85 |
| Cc1nn2c3ccccc3n(Cc3ccccc3)c2nc1=O | 19 |
| C[C@H](CO)N1C[C@H](C)[C@@H](CN(C)Cc2ccc(Cl)c(Cl)c2)Oc2ccc(NS(=O)(=O)c3cn(C)cn3)cc2CC1=O | 5.29 |
| C[C@H](CO)N1C[C@H](C)[C@@H](CN(C)Cc2ccc(Cl)c(Cl)c2)Oc2ccc(NC(=O)C3CC3)cc2CC1=O | 1.23 |
